Experimental data published in US6967196B1, “Sulfonamide compounds and uses thereof” (Bristol-Myers Squibb Company, priority 1999, dated 2005).
Where a name gives a salt, the structure may show the parent alone. Read-outs that look alike come from different tables or passages of the source. Each block holds one compound with its values, some of them ahead of it.

System: amyloid β production in transfected H4 (human neuroglioma) cells stably expressing APP constructs
Test: In vitro cell-based assay of inhibitors of amyloid β production (ELISA)
Conditions: amyloid β in medium by ELISA
Summary of the method: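 Plate wt/variant APP cells; ≥6 h later swap to medium + compound (10-100 μM screen); incubate ~16 h; sample medium; Aβ ELISA with C-terminal capture / N-terminal detection Abs; quantify vs Aβ standard curve.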

[1] = transfected H4 cells stably expressing APP constructs, approximately 16 hours incubation, read-out: ACTIVITY (IC50, inhibition of amyloid β production)
[2] = transfected H4 cells stably expressing APP, approx. 16 h incubation, read-out: ACTIVITY (IC50, inhibition of amyloid β production)
[3] = Homo sapiens, 16 h, transfected H4 cells expressing APP, approximately 16 hours incubation, read-out: ACTIVITY (IC50, inhibition of amyloid β production)
[4] = Homo sapiens, 16 h, transfected H4 cells stably expressing APP, approximately 16 hours incubation, read-out: ACTIVITY (IC50, inhibition of amyloid β production)
[5] = Homo sapiens, 16 h, transfected H4 cells stably expressing APP constructs, approximately 16 hours incubation, read-out: ACTIVITY (IC50, inhibition of amyloid β production)
[6] = transfected H4 cells stably expressing APP, approximately 16 hours incubation, Table B, read-out: ACTIVITY (IC50, inhibition of amyloid β production)
[7] = Homo sapiens, 16 h, transfected H4 cells stably expressing APP, approx. 16 h incubation, read-out: ACTIVITY (IC50, inhibition of amyloid β production)
[8] = transfected H4 cells stably expressing APP, approximately 16 hours incubation, read-out: ACTIVITY (IC50, inhibition of amyloid β production)

Compound: CCS(=O)(=O)CCC[C@@H](C)N(c1cc(Cl)ccc1Cl)S(=O)(=O)c1ccc(Cl)cc1 [Example 1164, 4-chloro-N-[2,5-dichlorophenyl]-N-[1(R)-methyl-(4-ethylsulfonyl]butyl]benzenesulfonamide]
IC50 [1]: ≤ 25 nM

Compound: C[C@H](C(=O)N(CCN)c1ccc([N+](=O)[O-])cn1)N(c1cc(Cl)ccc1F)S(=O)(=O)c1ccc(Cl)cc1 [Example 1354]
IC50 [3]: > 500 nM

Compound: C[C@H](C(=O)NC1CCCCCCC1)N(c1cc(Cl)ccc1F)S(=O)(=O)c1ccc(Cl)cc1 [Example 1345]
IC50 [3]: 100 to 500 nM

Compound: O=S(=O)(c1ccc(Cl)cc1)N(Cc1ccccc1OCCCN1CCCCC1)c1cc(Cl)cnc1Cl [Example 906, 4-chloro-N-(2,5-dichloro-3-pyridinyl)-N-{2-[3-(1-piperidinyl)propoxy]benzyl}benzenesulfonamide hydrochloride]
IC50 [4]: > 500 nM

Compound: C[C@H](CCN1CCCCC1CS(C)(=O)=O)N(c1cc(Cl)ccc1Cl)S(=O)(=O)c1ccc(Cl)cc1 (stereo partly drawn) [Example 1102, 4-chloro-N-(2,5-dichlorophenyl)-N-[3-[2-[(methylsulfonyl)methyl]-1-piperidinyl]-1(R)-methylpropyl]benzenesulfonamide]
IC50 [5]: ≤ 25 nM

Compound: O=S(=O)(c1ccc(Cl)cc1)N(Cc1ccccc1OCCC1CCCCN1Cc1ccccc1I)c1cc(F)ccc1F (centres unmarked) [Example 672, 4-chloro-N-(2,5-difluorophenyl)-N-(2-{2-[1-(2-iodobenzyl)-2-piperidinyl]ethoxy}benzyl)benzenesulfonamide]
IC50 [7]: 100 to 500 nM

Compound: C[C@H](c1ccccc1CCCn1cncn1)N(c1cc(F)ccc1F)S(=O)(=O)c1ccc(Cl)cc1 [Example 1066, 4-chloro-N-(2,5-difluorophenyl)-N-((1R)-1-{2-[3-(1H-1,2,4-triazol-1-yl)propyl]phenyl}ethyl)benzenesulfonamide]
IC50 [4]: > 500 nM

Compound: C[C@H](CCCOC(=O)N1CCCC1)N(c1cc(Cl)ccc1CO)S(=O)(=O)c1ccc(Cl)cc1 [Example 1298]
IC50 [3]: ≤ 25 nM

Compound: C[C@H](CCCSc1ccccc1)N(c1cc(Cl)ccc1CO)S(=O)(=O)c1ccc(Cl)cc1 [Example 1226, 4-chloro-N-[5-chloro-2-(hydroxymethyl)phenyl]-N-[1(R)-methyl-(4-phenylthio)butyl]benzenesulfonamide]
IC50 [1]: ≤ 25 nM

Compound: CC[S+]([O-])CCCC[C@@H](C)N(c1cc(Cl)ccc1Cl)S(=O)(=O)c1ccc(Cl)cc1 (stereo partly drawn) [Example 1173, 4-chloro-N-[2,5-dichlorophenyl]-N-[1(R)-methyl-(5-ethylsulfinyl)pentyl]benzenesulfonamide]
IC50 [1]: ≤ 25 nM

Compound: O=S(=O)(c1ccc(Cl)cc1)N(Cc1ccccc1OCCCN1CCCCC1)C1CCOCC1 [Example 271, 4-Chloro-N-{2-[3-(1-piperidinyl)propoxy]benzyl}-N-tetrahydro-2H-pyran-4-ylbenzenesulfonamide hydrochloride]
IC50 [6]: 25 to 50 nM

Compound: CC1CN(C(=O)CCCC[C@@H](C)N(c2cc(Cl)ccc2F)S(=O)(=O)c2ccc(Cl)cc2)CCS1(=O)=O (some centres unmarked) [Example 1272]
IC50 [1]: ≤ 25 nM

Compound: CC(c1ccccc1OCCCNC(=O)c1cccnc1)N(c1cc(F)ccc1F)S(=O)(=O)c1ccc(Cl)cc1 (centres unmarked) [Example 359, N-{3-[2-(1-{[(4-chlorophenyl)sulfonyl]-2,5-difluoroanilino}ethyl)phenoxy]propyl}nicotinamide]
IC50 [6]: 50 to 100 nM

Compound: CCS(=O)(=O)CCC[C@@H](C)N(c1cc(Cl)ccc1F)S(=O)(=O)c1ccc(Cl)cc1 [Example 1163, 4-chloro-N-[5-chloro-2-fluorophenyl]-N-[1(R)-methyl-(4-ethylsulfonyl)butyl]benzenesulfonamide]
IC50 [1]: ≤ 25 nM

Compound: C[C@H](c1ccc(CCCCNS(C)(=O)=O)cc1)N(c1cc(F)ccc1F)S(=O)(=O)c1ccc(Cl)cc1 [Example 1074]
IC50 [8]: > 500 nM

Compound: O=S(=O)(c1ccc(Cl)cc1)N(Cc1ccccc1OCCCN1CCC(CO)CC1)c1ccccc1 [Example 311, 4-Chloro-N-(2-{3-[4-(hydroxymethyl)-1-piperidinyl]propoxy}benzyl)-N-phenylbenzenesulfonamide Hydrochloride]
IC50 [6]: 50 to 100 nM

Compound: O=S(=O)(c1ccc(Cl)cc1)N(Cc1cc(Cl)ccc1OCCCN1CCCCC1)c1ccccc1 [Example 964, 4-chloro-N-{5-chloro-2-[3-(1-piperidinyl)propoxy]benzyl}-N-phenylbenzenesulfonamide hydrochloride]
IC50 [4]: > 500 nM

Compound: N-{4-[2-(1-{[(4-chlorophenyl)sulfonyl]-2,5-difluoroanilino}ethyl)phenoxy]butyl}-2-ethyl-N-methylhexanamide [Example 676]
IC50 [2]: 100 to 500 nM

Compound: CN(C)CCCOc1ccccc1CN(c1ccccc1)S(=O)(=O)c1cccc2c(N(C)C)cccc12 [Example 1085, 5-(dimethylamino)-N-{2-[3-(dimethylamino)propoxy]benzyl}-N-phenyl-1-naphthalenesulfonamide]
IC50 [5]: > 10000 nM

Compound: O=S(=O)(c1ccc(Cl)cc1)N(Cc1ccccc1OCCCN1CCCCC1)c1ccc(Cl)cc1Cl [Example 706, 4-chloro-N-(2,4-dichlorophenyl)-N-{2-[3-(1-piperidinyl)propoxy]benzyl}benzenesulfonamide hydrochloride]
IC50 [7]: 100 to 500 nM

The next lines start with the values.

IC50 (Homo sapiens, 16 h, transfected H4 cells stably expressing APP, approximately 16 hours incubation, Table B, read-out: ACTIVITY (IC50, inhibition of amyloid β production)): 50 to 100 nM
Compound: C[C@H](c1ccc(F)cc1COCc1ccccn1)N(c1cc(F)ccc1F)S(=O)(=O)c1ccc(Cl)cc1 [Example 400, 4-chloro-N-(2,5-difluorophenyl)-N-((1R)-1-{4-fluoro-2-[(2-pyridinylmethoxy)methyl]phenyl}ethyl)benzenesulfonamide]

IC50 [2]: 100 to 500 nM
Compound: 3-[2-((1R)-1-{[(4-chlorophenyl)sulfonyl]-2,5-difluoroanilino}ethyl)phenyl]propyl phenylcarbamate [Example 730]

IC50 (Table B, transfected H4 cells stably expressing APP, approximately 16 hours incubation, read-out: ACTIVITY (inhibitory concentration IC50, inhibition of amyloid β production)): ≤ 25 nM
Compound: C[C@H](CCCS(=O)(=O)Cl)N(c1cc(Cl)ccc1CO)S(=O)(=O)c1ccc(Cl)cc1 [Example 12]

IC50 [2]: 100 to 500 nM
Compound: N-{2-[2-(1-{[(4-chlorophenyl)sulfonyl]-2,5-difluoroanilino}ethyl)phenoxy]ethyl}-2-ethyl-N-methylhexanamide [Example 793]

IC50 [3]: > 500 nM
Compound: C[C@H](C(=O)Nc1cc(Cl)ccc1O)N(c1cc(Cl)ccc1F)S(=O)(=O)c1ccc(Cl)cc1 [Example 1336]

IC50 (Homo sapiens, 16 h, Table B, transfected H4 cells stably expressing APP, approximately 16 hours incubation, read-out: ACTIVITY (inhibitory concentration IC50, inhibition of amyloid β production)): 25 to 50 nM
Compound: C=C(C)C(=O)CCCc1cc(F)ccc1[C@@H](C)N(c1cc(F)ccc1F)S(=O)(=O)c1ccc(Cl)cc1 [Example 207, 4-chloro-N-(2,5-difluorophenyl)-N-{(1R)-1-[4-fluoro-2-(5-methyl-4-oxo-5-hexenyl)phenyl]ethyl}benzenesulfonamide]

IC50 [4]: > 500 nM
Compound: O=S(=O)(c1ccc(Cl)cc1)N(Cc1ccccc1OCCCN1CCCCC1)[C@H]1CC2CCC1C2 (stereo partly drawn) [Example 954, N-[(2S)-bicyclo[2.2.1]hept-2-yl]-4-chloro-N-{2-[3-(1-piperidinyl)propoxy]benzyl}benzenesulfonamide hydrochloride]

IC50 [6]: 100 to 500 nM
Compound: COC(=O)[C@H](CS(=O)(=O)CCCc1cc(F)ccc1[C@@H](C)N(c1cc(F)ccc1F)S(=O)(=O)c1ccc(Cl)cc1)NC(=O)OC(C)(C)C [Example 486]

IC50 (transfected H4 cells stably expressing APP, approximately 16 hours incubation, hydrochloride, read-out: ACTIVITY (IC50, inhibition of amyloid β production)): > 500 nM
Compound: CCC[C@@H](C)N(Cc1ccccc1OCCCN1CCCCC1)S(=O)(=O)c1ccc(Cl)cc1 [Example 980, 4-chloro-N-[(1R)-1-methylbutyl]-N-{2-[3-(1-piperidinyl)propoxy]benzyl}benzenesulfonamide hydrochloride]

IC50 [5]: 25 to 50 nM
Compound: C[C@H](CCN1CCSC1C(=O)O)N(c1cc(Cl)ccc1Cl)S(=O)(=O)c1ccc(Cl)cc1 (stereo partly drawn) [Example 1111, 4-chloro-N-(2,5-dichlorophenyl)-N-[3-(2-carboxy-3-thiazolidinyl)-1(R)-methylpropyl]benzenesulfonamide]

IC50 [8]: > 500 nM
Compound: O=C(OC[C@H](c1ccccc1)N(c1cc(F)ccc1F)S(=O)(=O)c1ccc(Cl)cc1)c1ccncc1 [Example 904, (2S)-2-{[(4-chlorophenyl)sulfonyl]-2,5-difluoroanilino}-2-henylethyl isonicotinate]

IC50 [3]: 100 to 500 nM
Compound: C[C@H](C(=O)NCc1ccccn1)N(c1cc(Cl)ccc1F)S(=O)(=O)c1ccc(Cl)cc1 [Example 1341]

IC50 [3]: 100 to 500 nM
Compound: C[C@H](C(=O)NC1CCCC1)C(c1cc(Cl)ccc1F)S(=O)(=O)c1ccc(Cl)cc1 (some centres unmarked) [Example 1307]

IC50 [4]: > 500 nM
Compound: O=S(=O)(c1ccc(Cl)cc1)N(Cc1ccccc1C#CCCN1CCCCC1)c1ccccc1 [Example 973, 4-chloro-N-phenyl-N-{2-[4-(1-piperidinyl)-1-butynyl]benzyl}benzenesulfonamide]

IC50 [8]: 100 to 500 nM
Compound: 4-chloro-N-{3-[2-(1-{[(4-chlorophenyl)sulfonyl]-2,5-difluoroanilino}ethyl)phenoxy]propyl}benzamide [Example 811]
